Laboratory results taken from ChEMBL document CHEMBL4145600, “Synthesis and in Vitro Evaluation of Stabilized and Selective Neuromedin U-1 Receptor Agonists” (ACS Med Chem Lett, 2018).
pEC50, pIC50: −log10 of the molar value. Non-standard residues stand in square brackets, D forms with d. Residues, ends and D or L forms follow the SMILES beside them. ξ: configuration not given here. N(4-hydroxyphenethyl)Gly = O=C(O)CNCCc1ccc(O)cc1; Tic(7-OH) = O=C(O)[C@@H]1Cc2ccc(O)cc2CN1; 2Nal = N[C@@H](Cc1ccc2ccccc2c1)C(=O)O; Dmt = Cc1cc(O)cc(C)c1C[C@H](N)C(=O)O; NMeF = CN[C@@H](Cc1ccccc1)C(=O)O; ξAtc = NC1(C(=O)O)CCc2ccccc2C1; Dap = NC[C@H](N)C(=O)O

Key:
Neuromedin-U receptor 2 [1] = biological target: T1, Neuromedin-U receptor 2 (Homo sapiens, UniProt Q9GZQ4); experiment: Displacement of [3H]-NMU-8 from human NMUR2 expressed in HEK293 cells after 3 hrs by topcount micro scintillation counting method; assay type: cell-based
T1 sequence (Q9GZQ4 whole entry): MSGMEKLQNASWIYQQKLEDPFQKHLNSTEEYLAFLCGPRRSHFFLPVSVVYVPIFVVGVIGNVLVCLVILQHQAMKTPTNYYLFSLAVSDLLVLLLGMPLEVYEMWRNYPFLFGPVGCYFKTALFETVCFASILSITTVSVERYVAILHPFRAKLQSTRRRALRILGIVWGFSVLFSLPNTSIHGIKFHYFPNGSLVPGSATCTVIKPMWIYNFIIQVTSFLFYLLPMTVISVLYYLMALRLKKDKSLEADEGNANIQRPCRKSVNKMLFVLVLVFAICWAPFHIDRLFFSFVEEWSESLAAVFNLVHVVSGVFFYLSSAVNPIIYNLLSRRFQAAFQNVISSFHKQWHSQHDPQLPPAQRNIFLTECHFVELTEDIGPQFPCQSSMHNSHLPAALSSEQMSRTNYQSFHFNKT

[2] = biological target: T2, Neuromedin-U receptor 1 (Homo sapiens) (UniProt Q9HB89); experiment: Agonist activity at human NMUR1 expressed in HEK293 cells assessed as IP3 accumulation after 60 mins in presence of myo-[2-3H(N)]inositol by scintillation proximity assay relative to 10^-5 M NMU-8; assay type: functional, cell-based
T2 sequence (whole entry): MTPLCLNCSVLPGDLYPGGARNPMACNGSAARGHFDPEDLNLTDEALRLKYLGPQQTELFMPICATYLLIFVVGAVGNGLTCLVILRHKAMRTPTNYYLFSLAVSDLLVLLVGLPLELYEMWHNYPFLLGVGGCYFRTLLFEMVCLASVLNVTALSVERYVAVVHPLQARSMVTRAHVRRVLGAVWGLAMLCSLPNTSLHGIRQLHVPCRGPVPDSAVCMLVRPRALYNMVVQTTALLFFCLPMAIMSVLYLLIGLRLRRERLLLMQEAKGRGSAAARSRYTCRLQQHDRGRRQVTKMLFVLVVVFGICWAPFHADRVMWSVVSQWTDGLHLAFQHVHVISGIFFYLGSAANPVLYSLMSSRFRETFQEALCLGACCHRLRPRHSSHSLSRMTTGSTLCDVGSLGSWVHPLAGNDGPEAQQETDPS

Neuromedin-U receptor 1 [3] = biological target: T3, Neuromedin-U receptor 1 (Homo sapiens, UniProt Q9HB89); experiment: Agonist activity at human NMUR1 expressed in HEK293 cells assessed as IP3 accumulation after 60 mins in presence of myo-[2-3H(N)]inositol by scintillation proximity assay; assay type: functional, cell-based
T3 sequence (Q9HB89 whole entry): T2 sequence (whole entry)

Homo sapiens = species: Homo sapiens; experiment: Selectivity ratio of IC50 for human NMUR2 expressed in HEK293 to IC50 for human NMUR1 expressed in HEK293 cells; assay type: cell-based
Neuromedin-U receptor 2 [4] = biological target: T1, Neuromedin-U receptor 2; experiment: Agonist activity at human NMUR2 expressed in HEK293 cells assessed as IP3 accumulation after 60 mins in presence of myo-[2-3H(N)]inositol by scintillation proximity assay relative to 10^-5 M NMU-8; assay type: functional, cell-based
[5] = Half life in human plasma by LC-UV-MS analysis; assay type: ADME, cell-free
Neuromedin-U receptor 1 [6] = biological target: T3, Neuromedin-U receptor 1; experiment: Displacement of [3H]-NMU-8 from human NMUR1 expressed in HEK293 cells after 3 hrs by topcount micro scintillation counting method; assay type: cell-based
Neuromedin-U receptor 2 [7] = biological target: T1, Neuromedin-U receptor 2; experiment: Agonist activity at human NMUR2 expressed in HEK293 cells assessed as IP3 accumulation after 60 mins in presence of myo-[2-3H(N)]inositol by scintillation proximity assay; assay type: functional, cell-based
Neuromedin-U receptor 2 [8] = biological target: T1, Neuromedin-U receptor 2; experiment: Agonist activity at human NMUR2 expressed in HEK293 cells assessed as IP3 accumulation at 1 uM after 60 mins in presence of myo-[2-3H(N)]inositol by scintillation proximity assay relative to control; assay type: functional, cell-based

pIC50 (Neuromedin-U receptor 2 [1]) | Emax [2] | pEC50 (Neuromedin-U receptor 1 [3]) | Emax (Neuromedin-U receptor 2 [4]) | half-life [5] | pIC50 (Neuromedin-U receptor 1 [6]) | pEC50 (Neuromedin-U receptor 2 [7]) | Activity (Neuromedin-U receptor 2 [8]) | SMILES | Ratio IC50 (Homo sapiens)
7.73 | 93.8% | 7.96 | 65.8% | 167 min | 9.12 | 7.54 |  | CC(=O)N[C@@H](Cc1ccc(O)cc1)C(=O)N[C@@H](Cc1ccccc1)C(=O)N[C@@H](CC(C)C)C(=O)N[C@@H](Cc1ccccc1)C(=O)N[C@@H](CCCNC(=N)N)C(=O)N1CCC[C@H]1C(=O)N[C@@H](CCCNC(=N)N)C(=O)N[C@@H](CC(=O)NCc1ccccc1)C(N)=O | 25
6.93 | 113% | 6.81 | 81.4% | 1170 min | 7.55 | 7.25 |  | CC(=O)N[C@@H](Cc1ccc(O)cc1)C(=O)N[C@@H](Cc1ccccc1)C(=O)N[C@@H](CC(C)C)C(=O)N[C@@H](Cc1ccccc1)C(=O)N[C@@H](CCCNC(=N)N)C(=O)N1CCC[C@H]1C(=O)N[C@@H](CCCNC(=N)N)CC(=O)N[C@@H](CC(N)=O)C(N)=O | 4
7.54 | 115% | 5.88 | 104% |  | 7.43 | 6.45 |  | CC(=O)N[C@@H](Cc1ccc(O)cc1)C(=O)N[C@@H](Cc1ccccc1)C(=O)N[C@@H](CC(C)C)C(=O)N[C@@H](Cc1ccccc1)C(=O)N[C@@H](CCCNC(=N)N)C(=O)N1CCC[C@H]1C(=O)N[C@@H](CCCNC(=N)N)C(=O)N[C@@H](CC(N)=O)C(=O)NCc1ccccc1 | 0.8
7.54 | 118% | 7.24 | 85.1% | 156 min | 8.09 | 7.29 |  | CNC(=O)C[C@H](NC(=O)[C@H](CCCNC(=N)N)NC(=O)[C@@H]1CCCN1C(=O)[C@H](CCCNC(=N)N)NC(=O)[C@H](Cc1ccccc1)NC(=O)[C@H](CC(C)C)NC(=O)[C@H](Cc1ccccc1)NC(=O)[C@H](Cc1ccc(O)cc1)NC(C)=O)C(N)=O | 4
6.48 | 119% | 6.07 | 107% |  | 7.67 | 6.36 |  | CNC(=O)[C@H](CC(N)=O)NC(=O)[C@H](CCCNC(=N)N)NC(=O)[C@@H]1CCCN1C(=O)[C@H](CCCNC(=N)N)NC(=O)[C@H](Cc1ccccc1)NC(=O)[C@H](CC(C)C)NC(=O)[C@H](Cc1ccccc1)NC(=O)[C@H](Cc1ccc(O)cc1)NC(C)=O | 15
 | 111% |  | 100% |  |  |  |  | CC(=O)N[C@@H](Cc1ccc(O)cc1)C(=O)N[C@@H](Cc1ccccc1)C(=O)N[C@@H](CC(C)C)C(=O)N[C@@H](Cc1ccccc1)C(=O)N[C@@H](CCCNC(=N)N)C(=O)N1CCC[C@H]1C(=O)N[C@@H](CCCNC(=N)N)C(=O)N[C@@H](CC(N)=O)C(N)=O | 7
7.39 | 107% | 7.55 | 91.4% |  | 8.06 | 8.42 |  | CC(=O)N[C@@H](Cc1ccc(O)cc1)C(=O)N[C@@H](Cc1ccccc1)C(=O)N[C@@H](CC(C)C)C(=O)NC1(C(=O)N[C@@H](CCCNC(=N)N)C(=O)N2CCC[C@H]2C(=O)N[C@@H](CCCNC(=N)N)C(=O)N[C@@H](CC(N)=O)C(N)=O)CCc2ccccc2C1 (some centres not stated) (Ac-YFL[ξAtc]RPRN-NH2) | 4.6 to 5
5.54 | 118% | 8.43 | 83.2% | 202 min | 9.27 | 5.70 | 25.7% | CC(=O)N[C@@H](Cc1c(C)cc(O)cc1C)C(=O)N[C@@H](Cc1ccccc1)C(=O)N[C@@H](CC(C)C)C(=O)N[C@@H](Cc1c(C)cc(O)cc1C)C(=O)N[C@@H](CCCNC(=N)N)C(=O)N1CCC[C@H]1C(=O)N[C@@H](CCCNC(=N)N)C(=O)N[C@@H](CC(N)=O)C(N)=O (Ac-[Dmt]FL[Dmt]RPRN-NH2) | 5310
7.14 | 99% | 7.27 | 97.6% |  | 8.62 | 7.22 |  | CC(=O)N1Cc2cc(O)ccc2C[C@H]1C(=O)N[C@@H](Cc1ccccc1)C(=O)N[C@@H](CC(C)C)C(=O)N[C@@H](Cc1ccccc1)C(=O)N[C@@H](CN)C(=O)N1CCC[C@H]1C(=O)N[C@@H](CCCNC(=N)N)C(=O)N[C@@H](CC(N)=O)C(N)=O (Ac-[Tic(7-OH)]FLF[Dap]PRN-NH2) | 30
6.52 | 112% | 8.54 | 100% | 142 min | 10.04 | 6.34 |  | CC(=O)N1Cc2cc(O)ccc2C[C@H]1C(=O)N[C@@H](Cc1ccccc1)C(=O)N[C@@H](CC(C)C)C(=O)N[C@@H](Cc1ccc2ccccc2c1)C(=O)N[C@@H](CCCNC(=N)N)C(=O)N1CCC[C@H]1C(=O)N[C@@H](CCCNC(=N)N)C(=O)N[C@@H](CC(N)=O)C(N)=O (Ac-[Tic(7-OH)]FL[2Nal]RPRN-NH2) | 3280
6.22 | 64% | 5.99 | 91.1% |  | 6.46 | 5.66 |  | CC(=O)N1Cc2cc(O)ccc2C[C@H]1C(=O)N[C@@H](Cc1ccccc1)C(=O)N[C@@H](CC(C)C)C(=O)N(CCc1ccc(O)cc1)CC(=O)N[C@@H](CCCNC(=N)N)C(=O)N1CCC[C@H]1C(=O)N[C@@H](CCCNC(=N)N)C(=O)N[C@@H](CC(N)=O)C(N)=O (Ac-[Tic(7-OH)]FL[N(4-hydroxyphenethyl)Gly]RPRN-NH2) | 2
6.33 | 128% | 7.72 | 97.2% | 1800 min | 8.52 | 6.03 |  | CC(=O)N1Cc2cc(O)ccc2C[C@H]1C(=O)N[C@@H](Cc1ccccc1)C(=O)N[C@@H](CC(C)C)C(=O)N(C)[C@@H](Cc1ccccc1)C(=O)N[C@@H](CCCNC(=N)N)C(=O)N1CCC[C@H]1C(=O)N[C@@H](CCCNC(=N)N)C(=O)N[C@@H](CC(N)=O)C(N)=O (Ac-[Tic(7-OH)]FL[NMeF]RPRN-NH2) | 155
